The source of these data is patent publication US7807669B2, “Biaromatic compounds which activate PPARγ type receptors and cosmetic/pharmaceutical compositions comprised thereof” (Galderma Research & Development, priority 2002, dated 2010).

Molecules are shown by their SMILES.

Common to all, as to format: cell-based
The target of one assay is T1, PPARγ (Homo sapiens, UniProt P37231).
T1 construct: The reporter is ERE-βGlob-Luc-SV-Neo
T1 sequence (P37231 238-505 limits assumed): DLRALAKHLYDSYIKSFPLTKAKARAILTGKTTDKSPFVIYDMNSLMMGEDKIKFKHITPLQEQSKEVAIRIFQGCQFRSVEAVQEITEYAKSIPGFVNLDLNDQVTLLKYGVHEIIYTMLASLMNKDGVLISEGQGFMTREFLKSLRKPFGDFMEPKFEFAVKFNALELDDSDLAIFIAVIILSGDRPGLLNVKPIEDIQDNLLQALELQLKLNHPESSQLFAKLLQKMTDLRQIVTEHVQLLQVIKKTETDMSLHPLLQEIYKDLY
Put plainly: Crossed-curve PPAR transactivation assay (PPARγ). To be noted: HeLN cells stably transfected with ERE-βGlob-Luc-SV-Neo and Gal-hPPARγ; crossed curves against reference agonist, Schild regression; n.a. means not active; read-out: PPAR gamma Kd app. As for the experimental part:
(§1) Activation of the receptors by an agonist (activator) in HeLN cells leads to the expression of a reporter gene, luciferase, which, in the presence of a substrate, generates light. The modulation of the receptors is measured by quantifying the luminescence produced after incubation of the cells in the presence of a reference agonist. The ligands will displace the agonist from its site. The measurement of the activity is performed by quantifying the light produced. This measurement makes it possible to determine the modulatory activity of the compounds according to the invention by determining the constant that is the affinity of the molecule for the receptor. Since this value can fluctuate depending on the basal activity and the expression of the receptor, it is referred to as Kd apparent (KdApp in nM).
(§2) To determine this constant, “crossed curves” for the test product, against a reference agonist, are prepared using a 96-well plate: 10 concentrations of the test product plus a concentration 0 are arranged in a line, and 7 concentrations of the agonist plus a concentration 0 are arranged in a column. This is 88 measurement points for 1 product and 1 receptor. The remaining 8 wells are used for repeatability controls.
(§3) Measurements are also taken for total agonist controls with the same products.
(§4) The HeLN cell lines used are stable transfectants containing the plasmids ERE-βGlob-Luc-SV-Neo (reporter gene) and PPAR (α, δ, γ) Gal-hPPAR. These cells are seeded in 96-well plates at a rate of 10 000 cells per well in 100 μl of DMEM medium without phenol red and supplemented with 10% of defatted calf serum. The plates are then incubated for 16 hours at 37° C. and 7% CO2.
(§5) The various dilutions of the test products and of the reference ligand are added at a rate of 5 μl per well. The plates are then incubated for 18 hours at 37° C. and 7% CO2. The culture medium is removed by turning over and 100 μl of a 1:1 PBS/luciferin mixture are added to each well. After 5 minutes, the plates are read using the luminescence reader.

A further assay addresses T2, PPARα (Homo sapiens, UniProt Q07869).
T2 construct: The reporter is ERE-βGlob-Luc-SV-Neo
T2 sequence (Q07869 239-468 limits assumed): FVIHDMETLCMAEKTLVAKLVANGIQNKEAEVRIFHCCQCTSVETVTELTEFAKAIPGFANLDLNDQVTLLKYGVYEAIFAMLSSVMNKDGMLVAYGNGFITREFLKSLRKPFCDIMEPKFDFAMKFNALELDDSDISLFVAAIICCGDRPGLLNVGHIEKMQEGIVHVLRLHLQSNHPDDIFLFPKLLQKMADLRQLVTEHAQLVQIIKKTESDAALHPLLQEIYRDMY
Briefly: Crossed-curve PPAR transactivation assay (PPARα). The following applies: HeLN cells stably transfected with ERE-βGlob-Luc-SV-Neo and Gal-hPPARα; crossed curves against reference agonist, Schild regression; n.a. means not active; read-out: PPAR alpha Kd app. As for the experimental part:
as §1, §2, §3, §4, §5

For a further assay, the target named is T3, PPARδ (Homo sapiens, UniProt Q03181).
T3 construct: The reporter is ERE-βGlob-Luc-SV-Neo
T3 sequence (Q03181 211-441 limits assumed): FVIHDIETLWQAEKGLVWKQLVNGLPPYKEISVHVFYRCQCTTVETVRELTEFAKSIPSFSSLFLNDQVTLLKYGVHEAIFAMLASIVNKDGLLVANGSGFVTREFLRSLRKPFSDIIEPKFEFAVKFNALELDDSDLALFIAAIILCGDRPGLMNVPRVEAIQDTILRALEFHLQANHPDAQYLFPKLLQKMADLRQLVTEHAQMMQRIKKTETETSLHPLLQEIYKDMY
Briefly: Crossed-curve PPAR transactivation assay (PPARδ). To be noted: HeLN cells stably transfected with ERE-βGlob-Luc-SV-Neo and Gal-hPPARδ; crossed curves against reference agonist, Schild regression; n.a. means not active; read-out: PPAR delta Kd app. On the procedure:
as §1
To determine this constant, “crossed curves” for the test product, against a reference agonist, are prepared using a 96-well plate: 10 concentrations of the test product plus a concentration 0 are arranged in a line, and 7 concentrations of the agonist plus a concentration 0 are arranged in a column. This is 88 measurement points for 1 product and 1 receptor. […]
The various dilutions of the test products and of the reference ligand are added at a rate of 5 μl per well. […] After 5 minutes, the plates are read using the luminescence reader.

Turning to `CCCCCCCNC(=O)N(C)c1cccc(-c2ccc(C[C@H](Nc3ccccc3C(=O)c3ccccc3)C(=O)N3CCC(C)CC3)cc2)c1` [Example 9, (S)-1-{4′-[2-(2-benzoylphenylamino)-3-(4-methylpiperid-1-yl)-3-oxopropyl]biphenyl-3-yl}-3-heptyl-1-methylurea], the results for the Kd at PPARγ and on PPARα were 30 nM and 2000 nM, respectively.
Take `CCCCCCCNC(=O)N(C)c1cccc(-c2ccc(C[C@H](Nc3ccccc3C(=O)c3ccccc3)C(=O)NCCCCC)cc2)c1` [Example 8, (S)-2-(2-benzoylphenylamino)-3-[3′-(3-heptyl-1-methylureido)biphenyl-4-yl]-N-pentylpropionamide]: the Kd was determined as 30 nM on PPARγ, 500 nM on PPARδ and 2000 nM at PPARα.
On to `CC(=CC(=O)c1ccccc1)N[C@@H](Cc1ccc(-c2cccc(CN(C)C(=O)c3ccccc3)c2)cc1)C(=O)O` [Example 31, (S)-3-{3′-[(benzoylmethylamino)methyl]biphenyl-4-yl}-2-(1-methyl-3-oxo-3-phenylpropenylamino)propionic acid], for which the Kd at PPARγ was 15 nM.
As for `CCCCCCCNC(=O)N(C)c1cccc(-c2ccc(C[C@H](Nc3ccccc3C(=O)c3ccccc3)C(=O)N(C)Cc3ccccc3)cc2)c1` [Example 20, (S)-2-(2-benzoylphenylamino)-N-benzyl-3-[3′-(3-heptyl-1-methylureido)biphenyl-4-yl]-N-methylpropionamide], the Kd at PPARγ was found to be 30 nM.
Same read-out and setting: under `CCCCCCCNC(=O)N(C)c1cccc(-c2ccc(C[C@H](Nc3ccccc3C(=O)c3ccccc3)C(=O)N3CCN(C)CC3)cc2)c1` [Example 16, (S)-1-{4′-[2-(2-benzoylphenylamino)-3-(4-methylpiperazin-1-yl)-3-oxopropyl]biphenyl-3-yl}-3-heptyl-1-methylurea] stands 30 nM; under `CN(C(=O)Nc1ccc2ccccc2c1)c1cccc(-c2ccc(C[C@H](Nc3ccccc3C(=O)c3ccccc3)C(=O)O)cc2)c1` [Example 6, (S)-2-(2-benzoylphenylamino)-3-[3′-(1-methyl-3-naphthalen-2-ylureido)biphenyl-4-yl]propionic acid], 4 nM.
On to `CCCCCCCNC(=O)N(C)c1cccc(-c2ccc(C[C@H](Nc3ccccc3C(=O)c3ccccc3)c3nnc(CCC)o3)cc2)c1` [Example 3, (S)-1-{4′-[2-(2-benzoylphenylamino)-2-(5-propyl[1,3,4]oxadiazol-2-yl)ethyl]biphenyl-3-yl}-3-heptyl-1-methylurea], for which the Kd on PPARγ came to 30 nM.
Turning to `CN(Cc1cccc(-c2ccc(C[C@H](Nc3ccccc3C(=O)c3ccccc3)C(=O)O)cc2)c1)C(=O)c1ccccc1` [Example 29, (S)-3-{3′-[(benzoylmethylamino)methyl]biphenyl-4-yl}-2-(2-benzoylphenylamino)propionic acid], the Kd on PPARγ was found to be 500 nM; on PPARα, 2000 nM.
`CCCCCCCNC(=O)N(C)c1cccc(-c2ccc(C[C@H](Nc3ccccc3C(=O)c3ccccc3)C(=O)OCCCC)cc2)c1` [Example 39, butyl (S)-2-(2-benzoylphenylamino)-3-[3′-(3-heptyl-1-methylureido)biphenyl-4-yl]propionate]: the Kd at PPARγ stood at 30 nM.
As to `CCCCCCCNC(=O)N(C)c1cccc(-c2ccc(C[C@H](Nc3ccccc3C(=O)c3ccccc3)C(=O)NCCNC(C)=O)cc2)c1` [Example 10, (S)—N-(2-acetylaminoethyl)-2-(2-benzoylphenylamino)-3-[3′-(3-heptyl-1-methylureido)biphenyl-4-yl]propionamide], the Kd on PPARγ came to 60 nM; on PPARα, 2000 nM.
On to `CCCCCCCNC(=O)N(C)c1cccc(-c2ccc(C[C@H](Nc3ccccc3C(=O)c3ccccc3)C(=O)NCc3ccccn3)cc2)c1` [Example 18, (S)-2-(2-benzoylphenylamino)-3-[3′-(3-heptyl-1-methylureido)biphenyl-4-yl]-N-pyridin-2-ylmethylpropionamide], for which the Kd at PPARγ amounted to 60 nM.
`CCCCCCCNC(=O)N(C)c1cccc(-c2ccc(C[C@H](Nc3ccccc3C(=O)c3ccccc3)C(=O)N(C)CCc3ccccc3)cc2)c1` [Example 27, (S)-2-(2-benzoylphenylamino)-3-[3′-(3-heptyl-1-methylureido)biphenyl-4-yl]-N-methyl-N-phenethylpropionamide]: the Kd at PPARγ amounted to 15 nM; at PPARα, 4000 nM.
Turning to `CCCCCCCNC(=O)N(C)c1cccc(-c2ccc(C[C@H](Nc3ccccc3C(=O)c3ccccc3)C(=O)NCCN(C)C)cc2)c1` [Example 26, (S)-2-(2-benzoylphenylamino)-N-(2-dimethylaminoethyl)-3-[3′-(3-heptyl-1-methylureido)biphenyl-4-yl]propionamide], the Kd at PPARγ was 60 nM.
Still for that read-out and setting: under `CCCCCCCNC(=O)N(C)c1cccc(-c2ccc(C[C@H](Nc3ccccc3C(=O)c3ccccc3)C(=O)N(Cc3ccccc3)Cc3ccccc3)cc2)c1` [Example 13, (S)-2-(2-benzoylphenylamino)-N,N-dibenzyl-3-[3′-(3-heptyl-1-methylureido)biphenyl-4-yl]propionamide] stands 8 nM.
